Laboratory results published in a melting point compilation (Tetko et al.; mined from patent text by program, amines drawn as free bases though some values may be those of a salt).

Structure (SMILES) | melting point
O=C1c2cc(Cl)c(Cl)cc2CN2C(=NO)CCC12 (stereo unspecified) | 245 to 246 °C
CS(=O)(=O)c1ccc(-c2nc(-c3ccccc3)nn2-c2ccc(Cl)cc2)cc1 | 170 °C
COc1ccc2c(c1)S(=O)(=O)c1cc(OC(C)=O)c(OC)cc1N2 | 265 to 268 °C
Cc1ccc(S(=O)(=O)OCCc2cc3ccccc3o2)cc1 | 195 to 197 °C
O=S(=O)(CC(O)(CBr)c1ccccc1)c1ccccc1 (stereo unspecified) | 91 °C
COc1cc(NC(=O)n2cc(F)c(=O)[nH]c2=O)cc(OC)c1OC | 168 to 170 °C
CCCCc1ncc(/C=C(\Cc2cccs2)C(=O)O)n1Cc1ccccc1OC | 186 to 187 °C
c1ccc(N2c3ccccc3[C@@H]3CNCC[C@H]32)cc1 | 74 to 76 °C
Cc1nc2c(c(=O)[nH]1)CC(C)C2 (stereo unspecified) | 174 to 175 °C
COC(=O)C1=C(C(=O)N(C(=O)CCl)c2cc(OC)c(Cl)cc2F)CCCC1 | 109 °C
CC(=O)N(C)c1ccnc2c(NC(=O)c3c(Cl)cccc3Cl)cccc12 | 227 to 230 °C
COc1ccc2c(c1)CN(C(N)=O)N=C2Cc1c(Cl)cncc1Cl | > 230 °C
COc1ncc(C(F)(F)F)cc1-c1cccn2nc(Nc3ccc(C4CCNCC4)cc3)nc12 | 106 to 108 °C
COC1=C(C)C(C)(F)C(C(=O)c2ccccc2)C=C1 (stereo unspecified) | 59 to 61 °C
NC(=NO)c1ccc(NC(=O)CC(=O)N2CCC(OCC(=O)O)CC2)cc1 | 133 to 135 °C
Cc1cc(S(C)(=O)=O)c(S(C)(=O)=O)cc1C(=O)N=C(N)N | > 240 °C
COC(=O)Cc1ccc(O)c(F)c1 | 32 to 34 °C
C[C@@H]1CN(c2ccc(-c3[nH]nc4c3C(=O)c3c(NC(=O)NN5CCOCC5)cccc3-4)cc2)C[C@H](C)N1C | 240 °C
Oc1ccc2c(-c3noc4cc(O)ccc34)cccc2c1 | 268 to 288 °C
CC(=O)SCCN(CCC1CCCCC1)C(=O)N[C@@H](C)C(=O)O | 89.5 to 90.5 °C
COC(=O)CN1C(=S)CN=C(c2ccccc2)c2cc(Cl)ccc21 | 180 to 182 °C
COC(=O)/C=C/n1cnc2c(C(C)C)cc(C(C)C)cc2c1=O | 102 to 103 °C
O=C(NCc1ccccc1)OCC(=O)c1ccccc1 | 110 to 112 °C
Cn1cc(-c2noc(C(N)CN3CCCCC3)n2)c2ccccc21 (stereo unspecified) | 146 to 147 °C
CN1[C@H]2CC[C@@H]1[C@H](C(=O)Oc1ccc(Cl)cc1)[C@@H](c1ccc(F)cc1)C2 | 64 to 66 °C
CC1=CC(OC(=O)c2ccc([N+](=O)[O-])cc2)C2OC1(OCCO)CC2(C)C (stereo unspecified) | 166 to 168 °C

Structure (SMILES) | melting point
O=S(=O)(NCC1CCN(C[C@H]2COc3ccc(Cl)cc3O2)CC1)c1ccc(F)cc1F | 119 to 121 °C
CC(=O)C1CCC2C3CC(C)C4CC(O)CCC4(C)C3C(O)CC12C (stereo unspecified) | 211 to 213 °C
Cc1nccn1Cc1c(C(=O)O)nc2c(=O)[nH]c3cc(C(F)(F)F)ccc3n12 | > 250 °C
Fc1ccc(Nc2ncnc(NN=Cc3ccc(OC(F)(F)F)cc3)n2)cc1C(F)(F)F | 185 to 186 °C
CCCc1c(OCCCOc2cccc3c2CCCC3)ccc2c1OC(CCC(=O)O)(CCC(=O)N1CCCC1)CC2=O (stereo unspecified) | 160 to 164 °C
CCCCNc1nc2c(C(=O)OCC)cnn2c2c1cnc1c2cnn1CC | 275 to 277 °C
Cc1cccc(C)c1N(C(C)CCl)S(C)(=O)=O (stereo unspecified) | 126 to 128 °C
CCOC(=O)c1cn(-c2ccc(F)cc2F)c2c(F)c(F)c(F)c(F)c2c1=O | 160 to 162 °C
CN1CC2CCCCC2C1c1noc(=O)[nH]1 (stereo unspecified) | 102 to 104 °C
CC(C)CNC1NC(=O)N(c2cccs2)C(=O)N1 | 265 to 268 °C
CC(C)c1cccc(C(C)C)c1NC(=O)[C@H](C)N(C)C(=O)OC(C)(C)C | 108 to 110 °C
COc1ccc2c(c1OC)CCCC2c1c[nH]cn1 (stereo unspecified) | 160 °C
Nc1ncnc2c1c(-c1cccc(O)c1)nn2Cc1oc2ccccc2c(=O)c1-c1cccc(F)c1 | 280 to 283 °C
CCOC(=O)c1ccccc1CCc1ccc2oc(-c3nc(C(C)(C)C)cs3)cc2c1 | 75 to 77 °C
CCCCS(=O)(=O)Oc1ccc(CCOc2ccc(/C=C(\OCC)C(=O)O)cc2OC)cc1 | 94 °C
COc1c(N2CC(C)C(NC3CC3)C(C)C2)c(F)c(N)c2c(=O)c(C(=O)O)cn(C3CC3)c12 (stereo unspecified) | 248 °C
O=C(O)CCCNC(=O)C(CS)Cc1ccccc1 (stereo unspecified) | 94.5 to 101 °C
CCCC(=O)C(=CNc1ccccc1COC(=O)c1ccccc1)C(=O)OCC | 78 to 82 °C
CCOC(=O)c1c(OC)c2cc(Cl)ccc2c(=O)n1C | 122 to 123 °C
CCOC(=O)c1c(Nc2ccccc2SC)n[nH]c1C | 135 to 158 °C
CCOC(=O)C[C@H]1O[C@H](c2cccc(OC)c2OC)c2cc(Cl)ccc2N(CC(C)(C)CO)C1=O | 188 to 190 °C
C[Si](C)(C)c1cccc(Cl)c1C(=O)NC(c1ccccc1)n1nnc2ccccc21 (stereo unspecified) | 184 to 186 °C
COc1ccc(-c2cc(-c3ccccc3)[nH]c2C(=O)Nc2ccc(C(=O)NO)cc2)cc1 | 234 to 235 °C
COc1ccnc(CCc2nc3cc(-c4ccc(O)cc4)cnc3[nH]2)c1 | 206 to 208 °C
CCCC1(CCC)c2cc(-c3ccc(Br)s3)ccc2-c2ccc(-c3ccc(Br)s3)cc21 | 160 to 165 °C
O=C1NC(=O)C2(c3ccc4ccc(O)nc4n3)C=CC=CC12 (stereo unspecified) | 370 °C

Structure (SMILES) | melting point
O=C1CCC(C2CO2)N1Cc1ccccc1Cl (stereo unspecified) | 81 to 83 °C
N#CCCNC(=O)c1cccc(-c2cccc3nn(Cc4cccc(C(F)(F)F)c4)cc23)n1 | 178 to 179 °C
CCC1(C)C(=O)N(C(C)C)CC(C)(C)N1OC(C)(C)C#N (stereo unspecified) | 106 to 108 °C
Brc1cc(Br)c(CSCc2cc(Br)c(Br)cc2Br)cc1Br | 173 to 175 °C
COc1ccc2[nH]cc(-c3cc4c(-c5c(C)noc5C)ccnc4[nH]3)c2c1 | 270 to 271 °C
CC(C)(C)c1cc(C=Cc2cc(C=Cc3cc(C(C)(C)C)cc(C(C)(C)C)c3)cc(C=C(Br)Br)c2)cc(C(C)(C)C)c1 | 148 to 150 °C
Cc1cc(N)n(C)c2nc(N)nc(=O)c1-2 | > 300 °C
CCc1nc2cc(Cl)c(S(N)(=O)=O)cc2[nH]1 | 240 to 242 °C
CCC(O)c1ccc(-c2ccc(Cl)cc2)cc1 (stereo unspecified) | 114 to 116 °C
CCOC(=O)C1=C(C)N(c2ccc(Cl)cc2)C(=O)CC1 | 124 to 126 °C
CSC1CC(=O)N1CC(=O)c1ccccc1 (stereo unspecified) | 43 to 45 °C
COc1ccc(S(=O)(=O)c2c(C(C)C)cn3cccc(C)c23)cc1 | 103 °C
O=C(CS(=O)(=O)c1ccccc1)OC1CCCCC1 | 35 to 38 °C
CC(C)c1nc(C2CCCCC2)cc(-c2ccc(F)cc2)c1C=O | 59 to 61 °C
COc1cc(OCCCCc2cn(-c3ccc(C(F)(F)F)cn3)nc2C(C)C)ccc1CCC(=O)O | 125 to 126 °C
O=C1c2cccc3cc4ccccc4c(c23)C(=O)N1CCN1CCCN(CCN2C(=O)c3cccc4cc5ccccc5c(c34)C2=O)C1 | 222 °C
O=C(O)C(=O)c1ccc(OCCOc2ccc3ccncc3c2)cc1 | 260 °C
CCC(CC)c1nn(-c2ccc(Cl)cn2)cc1CCCO | 62 to 63 °C
Nc1nc2c(ncn2OCC/C=C\P(=O)(O)O)c(=O)[nH]1 | 240 to 242 °C
O=C1Cc2cc(NC(=O)C(=O)N3CCC(Oc4ccc(F)cc4)CC3)ccc2N1 | 147 to 149 °C
Nc1cscc1NC(=S)Nc1c(Cl)csc1Cl | 110 to 115 °C
Cn1c(=O)cc(-c2cccc(Cl)c2)c2cc(Br)ccc21 | 182 °C
COc1ccc(N2C(=O)N(c3cccc(C(N)=O)c3)c3nc(Nc4ccccc4)ncc3C2C)cc1 (stereo unspecified) | 268 to 273 °C
S=C1NCC2c3ccccc3Cc3ccccc3N12 (stereo unspecified) | 222 to 224 °C
Cc1c(NC(=O)c2ccc(-c3ccc(F)cc3)c(F)c2)ccc2cc(CN3CCCCC3)cnc12 | 161 to 162 °C
CS(=O)c1ccc(-n2cnc3ccc(-c4nnc(CCc5cccc(C(F)(F)F)c5)o4)cc32)cc1 (stereo unspecified) | 169 to 170 °C

Structure (SMILES) | melting point
CN(Cc1ccc(F)cc1)C(=O)c1cnc2c([N+](=O)[O-])cccc2c1Cl | 135 to 137 °C
CCOC(=O)c1cc(OC)c2c(C)c(CCN(CC)CC)c(=O)oc2c1Cl | 147 to 148 °C
CC(=O)N1CCC(n2cc(C3=C(c4cn(C)c5ccccc45)C(=O)NC3=O)c3ccccc32)CC1 | > 293 °C
CCCCCCNC(=O)Nc1cccc2c1C1(COc3cc4c(cc31)OCCO4)C(=O)N2C (stereo unspecified) | 154 to 155 °C
NCCc1c2n(c3ccccc13)CCNCC2 | 77 to 80 °C
O=c1c2cccc(O)c2nc(-c2ccc(OCCCl)cc2)n1-c1ccc(O)cc1 | 188 to 190 °C
CC1=NC(=NO)SC1(C)C | 151 to 153 °C
COc1ccc(Br)c2c1C1C(=O)N(C)C(=O)C1CC2 (stereo unspecified) | 201 to 202 °C
CC(=O)OCCOCCN1CCC(CNC(=O)[C@@H]2CCCN2S(=O)(=O)c2ccc(Cl)c(COc3cccc4c(-n5ccnc5)cc(C)nc34)c2Cl)CC1 | 90 °C
COc1ccc2cc(-n3cnnc3)cc(C)c2n1 | 157 to 159 °C
CCc1nc2cnc3ccccc3c2n1CCCCN | 84.8 to 88.7 °C
Oc1ccc(C(F)(F)F)cc1C=S | 50 to 52 °C
COc1ccc2c3c(oc2c1)CC(C(=O)O)CC3 (stereo unspecified) | 175 to 180 °C
O=CNCN1CCCCCC1=O | 48 °C
Oc1ccc2c(CCCCN3CC=C(c4cccs4)CC3)c[nH]c2c1 | 181 °C
CN(C)C(=O)C(Br)Cn1ccc(-c2ccccc2)n1 (stereo unspecified) | 93 to 94 °C
CC(C)(C)C(=O)SC/C(=C/c1ccccc1)C(=O)O | 88 °C
C=CCN(C)c1nc(Cc2ccc(OC)c(OC)c2)nc2sc(C#N)c(C)c12 | 98 to 100 °C
CN(C(=O)OC(C)(C)C)c1cc(Sc2cc(C(C)(C)C)c(O)c(C(C)(C)C)c2)ccc1N | 95 to 96 °C
Oc1nc2c([nH]1)CCCCC2 | 272 °C
N#CC(=Cc1cc2ccccc2c2ccccc12)c1ccncc1 | 206 to 208 °C
CCCSc1ccc(C(=O)C(=O)OCC)[nH]1 | 34 °C
O=C(NCCNC1CCC(c2ccc3[nH]c(=O)oc3c2)CC1)c1ccccc1 (stereo unspecified) | 167 to 175 °C
